From patent US8697874B2, “Heterocyclic compound and use thereof” (Takeda Pharmaceutical Company Limited, priority 2008, dated 2014)
One block for each compound: values may come before it.

Columns and labels:
BRAF (V600E) kinase = biological target: T1, BRAF (V600E) kinase (Homo sapiens, UniProt P15056, V600E); experiment: Determination of BRAF (V600E) kinase inhibitory activity; format: biochemical; details: compound 1.0 μm; substrate GSTP1-MEK1 (K96R), [γ-32P]ATP
T1 construct: area encoding the BRAF kinase domain region, so that the protein contains an N-terminal Flag; made in house; host or cells: SF-21 insect cells infected with recombinant baculovirus BAC-V600E
Experimental: Determination of BRAF (V600E) Kinase Inhibitory Activity
A test compound (2.5 μL) dissolved in dimethyl sulfoxide (DMSO) was added to 37.5 μL of a reaction solution (25 mM HEPES (pH 7.5), 10 mM magnesium acetate, 1 mM dithiothreitol) containing 30 ng of BRAF (V600E) enzyme and 250 ng of recombinant protein GSTP1-MEK1 (K96R) prepared using FreeStyle 293 expression system (Invitrogen), and the mixture was incubated at room temperature for 10 min. 10 μL of ATP solution (2.5 μM ATP, 0.1 μCi [γ-^32P]ATP) was added to the obtained mixture, and the mixture was reacted at room temperature for 20 min. The reaction was quenched by adding 50 μL of ice-cooled 20% trichloroacetic acid (Wako Pure Chemical Industries, Ltd.) to the reaction solution. The reaction solution was allowed to stand at 4° C. for 30 min., and the acid-precipitable fraction was transferred to GF/C filter plate (Millipore Corporation) using cell harvester (PerkinElmer). The plate was dried at 45° C. for 60 min., and 40 μL of MicroScinti 0 (PerkinElmer) was added thereto. The radioactivity was measured using TopCount (PerkinElmer). The kinase inhibitory rate (%) of the test compound was calculated by the following formula: Inhibitory rate (%)=(1−(count of test compound−blank)÷(control−blank))×100
The count of the solution reacted without addition of the compound was used as a “control”, and the count of the solution without the compound and enzyme was used as a “blank”.

[1] = system: MEK1/2 phosphorylation in human colorectal cancer cell HT-29; experiment: Colorectal cancer cell HT-29 intracellular MEK phosphorylation inhibitory activity in vitro; format: cell-based; details: HT-29 cells; for IC50: 2 hrs treatment, phosphorylated MEK1/2 by Western blot; for inhibition at 0.5 µM: MEK1/2 protein phosphorylation, compound 0.5 μM, 2 hrs, read-out: inhibitory rate (%) at 0.5 μM
Experimental: Colorectal Cancer Cell HT-29 Intracellular MEK Phosphorylation Inhibitory Activity In Vitro
500 μL of a cell suspension of human colorectal cancer cell HT-29 (purchased from American Type Culture Collection (ATCC)) was plated in a 48-well plate (100,000 cells/well), and the cells were cultured overnight at 37° C. in the presence of 5% CO2, treated with a test compound (250 μL/well) diluted in 3-fold dilution series and cultured for 2 hrs. After 2 hrs, the culture medium containing the test compound was removed, and the cells were lysed with SDS sample buffer (100 μL/well) and heated at 95° C. for 5 min. Thereafter, the cells lysed with SDS sample buffer were applied to SDS-PAGE, and the protein was transferred onto Sequi-Blot™ PVDF Membrane (Bio-Rad) by the Western blot method. The PDVF membrane was blocked with a Block-Ace solution (Snow Brand Milk Products Co., Ltd) dissolved in phosphate buffered saline (MP Biochemicals) to 5% W/V, and reacted overnight with anti-phosphorylated MEK1/2 (Ser217/221) (Cell signaling) diluted 1000-fold with phosphate buffered saline containing 0.4% Block-Ace. The membrane was washed with phosphate buffered saline containing 0.1% Tween 20 (Wako Pure Chemical Industries, Ltd.), and reacted at room temperature for 1 hr with HRP labeled rabbit IgG polyclonal antibody (Cell signaling) diluted 1000-fold with phosphate buffered saline containing 0.4% Block-Ace. The membrane was washed in the same manner as above, chemical luminescence of a phosphorylated MEK1/2 protein labeled with the antibody, which was caused by ECL-plus Detection Reagent (Amersham bioscience), was detected by Luminescent Image Analyzer LAS-1000 (FUJIFILM Corporation). Taking the luminescence of the control group free of the test compound as 100%, the concentration (IC50 value) of the compound necessary for inhibiting the residual luminescence to 50% of the control group was calculated. The results are shown in Table 3-A. In addition, MEK1/2 protein phosphorylation inhibitory rate (%) of the test compound at compound concentration 0.5 μM was calculated by the following formula. The results are shown in Table 3-B. Inhibitory rate (%)=(1−(luminescence of test compound−blank)÷(luminescence of control group−blank))×100

[2] = system: human colorectal cancer cell HT-29; experiment: Colorectal cancer cell HT-29 growth suppressive activity in vitro; format: cell-based; details: 72 h, HT-29 cells, SRB staining; for IC50: 3 days culture; for inhibition at 5 µM: cell proliferation, compound 5.0 μM, 3 days, read-out: inhibitory rate (%) at 5.0 μM
Experimental: Colorectal Cancer Cell HT-29 Growth Suppressive Activity in Vitro
100 μL of a cell suspension (3,000 cells/well) of human colorectal cancer cell HT-29 (purchased from ATCC) was plated in a 96-well plate, and the cells were cultured at 37° C. in a 5% CO2 gas incubator. The next day, 100 μL of each test compound solution diluted in 2-fold serial dilution, diluted from maximum concentration 20 μM, was added, and the cells were cultured for 3 days. As for Example 44, 100 μl of each test compound solution (4-fold serially diluted, diluted from maximum concentration 20 μM) was added, and the cells were cultured for 3 days. The culture medium containing the test compound was removed, and the cells were washed with phosphate buffered saline (PBS). A 50% trichloroacetic acid solution was added to the final concentration of 10% (v/v), and the mixture was stood overnight at 4° C., whereby the cells were fixed to the plate. Then, a dye SRB 0.4% (w/v) solution (dissolved in 1% acetic acid) was added at 50 μl/well, whereby the cell protein was fixed and stained (Skehan et al., Journal Of National Cancer Institute, vol. 82, pp. 1107-1112, 1990). The cells were washed 3 times with 1% acetic acid solution (200 μL/well), and 100 μL of an extract (10 mM Tris buffer) was added to extract the dye. The absorbance at an absorption wavelength 550 nm was measured, and cell amount was measured as a protein amount. Taking the protein amount of the control group free of the test compound solution as 100%, the proportion of the residual protein amount of each treatment group was determined and the concentration of the compound necessary for suppressing the residual cell amount to 50% of the control (IC50 value) was calculated. The results are shown in Table 4-A. In addition, cell proliferation inhibitory rate (%) of the test compound at compound concentration 5.0 μM was calculated by the following formula. The results are shown in Table 4-B. Inhibitory rate (%)=(1−(absorbance of test compound−blank)÷(absorbance of control group−blank))×100

T1 sequence (P15056 457-717 V600E limits assumed): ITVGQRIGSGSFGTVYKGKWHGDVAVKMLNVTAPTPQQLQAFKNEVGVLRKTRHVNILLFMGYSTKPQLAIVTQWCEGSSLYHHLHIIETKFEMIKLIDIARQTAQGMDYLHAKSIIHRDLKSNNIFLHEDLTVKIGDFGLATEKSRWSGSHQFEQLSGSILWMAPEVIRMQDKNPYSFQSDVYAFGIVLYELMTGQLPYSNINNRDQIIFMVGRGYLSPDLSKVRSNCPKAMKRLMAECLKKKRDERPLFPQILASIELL

inhibitory rate (%) at 1.0 μm (BRAF (V600E) kinase): 100%
Structure (SMILES): O=C(Cc1ccccc1C(F)(F)F)Nc1cc(Oc2ccc3nc(NC(=O)C4CC4)sc3n2)ccc1F [Example 19, N-{5-[4-fluoro-3-({[2-(trifluoromethyl)phenyl]acetyl}amino)phenoxy][1,3]thiazolo[5,4-b]pyridin-2-yl}cyclopropanecarboxamide]

inhibitory rate (%) at 1.0 μm (BRAF (V600E) kinase): 98%
Structure (SMILES): O=C(Cc1ccc(C(F)(F)F)cc1)Nc1cc(Oc2ccc3nc(NC(=O)C4CC4)sc3n2)ccc1F [Example 21, N-{5-[4-fluoro-3-[{(4-(trifluoromethyl)phenyl]acetyl}amino)phenoxy][1,3]thiazolo[5,4-b]pyridin-2-yl}cyclopropanecarboxamide]

IC50 [2]: < 0.5 µM
Structure (SMILES): O=C(Nc1ccc(C(F)(F)F)nc1)Nc1cc(Oc2ccc3nc(NC(=O)C4CC4)sc3n2)ccc1F [Example 29, N-{5-[4-fluoro-3-({[6-(trifluoromethyl)pyridin-3-yl]carbamoyl}amino)phenoxy][1,3]thiazolo[5,4-b]pyridin-2-yl}cyclopropanecarboxamide]
inhibition at 5 µM [2]: 74%

IC50 [2]: < 0.5 µM
Structure (SMILES): Cc1ccc(NC(=O)Cc2ccsc2)cc1Oc1ccc2nc(NC(=O)C3CC3)sc2n1 [Example 44, N-(5-{2-methyl-5-[(thiophen-3-ylacetyl)amino]-phenoxy} [1,3]thia-zolo[5,4-b]pyridin-2-yl)cyclo-propanecarboxamide]
inhibition at 5 µM [2]: 98%

More lines, now with the values behind:

Structure (SMILES): CN(c1ccc(F)c(NC(=O)Nc2ccc(C(F)(F)F)cc2)c1)c1ccc2nc(NC(=O)C3CC3)sc2n1 [Example 1, N-(5-{[4-fluoro-3-({[4-(trifluoromethyl)phenyl]carbamoyl}amino)phenyl](methyl)amino}[1,3]thiazolo[5,4-b]pyridin-2-yl)cyclopropanecarboxamide]
inhibitory rate (%) at 1.0 μm (BRAF (V600E) kinase): 98%

Structure (SMILES): CN(c1ccc(F)c(NC(=O)Nc2ccc(C(C)(C)C)cc2)c1)c1ccc2nc(NC(=O)C3CC3)sc2n1 [Example 3, N-{5-[(3-{[(4-tert-butylphenyl)carbamoyl]amino-}-4-fluorophenyl)(methyl)amino][1,3]thiazolo[5,4-b]pyridin-2-yl}cyclopropanecarboxamide]
IC50 [1]: < 0.3 µM
inhibition at 0.5 µM [1]: 94%

Structure (SMILES): CN(c1cccc(NC(=O)Nc2ccc(OC(F)(F)F)cc2)c1)c1ccc2nc(NC(=O)C3CC3)sc2n1 [Example 9, N-(5-{methyl[3-({[4-(trifluoromethoxy)phenyl]carbamoyl}amino)phenyl]amino}[1,3]thiazolo[5,4-b]pyridin-2-yl)cyclopropanecarboxamide]
IC50 [2]: < 0.5 µM
inhibition at 5 µM [2]: 100%

Structure (SMILES): CN(c1cccc(NC(=O)Nc2ccc(Cl)c(C(F)(F)F)c2)c1)c1ccc2nc(NC(=O)C3CC3)sc2n1 [Example 11, N-(5-{[3-({[4-chloro-3-(trifluoromethyl)phenyl]carbamoyl}amino)phenyl](methyl)amino}[1,3]thiazolo[5,4-b]pyridin-2-yl)cyclopropanecarboxamide]
inhibitory rate (%) at 1.0 μm (BRAF (V600E) kinase): 99%

Structure (SMILES): O=C(Nc1ccc(Cl)c(C(F)(F)F)c1)Nc1cc(Nc2ccc3nc(NC(=O)C4CC4)sc3n2)ccc1F [Example 13, N-(5-{[3-({[4-chloro-3-(trifluoromethyl)phenyl]carbamoyl}amino)-4-fluorophenyl]amino}[1,3]thiazolo[5,4-b]pyridin-2-yl)cyclopropanecarboxamide]
IC50 [1]: < 0.3 µM
inhibition at 0.5 µM [1]: 98%

Structure (SMILES): O=C(Cc1cccc(C(F)(F)F)c1)Nc1cc(Oc2ccc3nc(NC(=O)C4CC4)sc3n2)ccc1F [Example 22, N-{5-[4-fluoro-3-({[3-(trifluoromethyl)phenyl]acetyl}amino)phenoxy][1,3]thiazolo[5,4-b]pyridin-2-yl}cyclopropanecarboxamide]
inhibition at 0.5 µM [1]: 88%

Structure (SMILES): O=C(Nc1cccc(C(F)(F)F)c1)Nc1cc(Oc2ccc3nc(NC(=O)C4CC4)sc3n2)ccc1F [Example 23, N-{5-[4-fluoro-3-({[3-(trifluoromethyl)phenyl]carbamoyl}amino)phenoxy][1,3]thiazolo[5,4-b]pyridin-2-yl}cyclopropanecarboxamide]
IC50 [1]: < 0.3 µM
inhibition at 0.5 µM [1]: 88%
